ChEMBL document CHEMBL1158169, “Functionalized chalcones with basic functionalities have antibacterial activity against drug sensitive Staphylococcus aureus” (Eur J Med Chem, 2008)
In brackets after ≈: the same amount, converted by molar mass.

How the values were obtained:
[1] = tested on: Staphylococcus aureus; assay: Antibacterial activity against methicillin-sensitive Staphylococcus aureus ATCC 13150 after 20 hrs by microdilution assay; type: functional
[2] = tested on: Escherichia coli; assay: Antibacterial activity against Escherichia coli ATCC 49696 after 20 hrs by microdilution assay; type: functional; conditions: ATCC 49696, 20 h
[3] = tested on: Staphylococcus aureus; assay: Antibacterial activity against methicillin-resistant Staphylococcus aureus; type: functional
[4] = Toxicity in sheep erythrocytes assessed as hemolysis at 100 uM after 90 mins; type: cell-based, Ovis aries, Erythrocyte; conditions: read-out: Activity
[5] = tested on: Staphylococcus aureus; assay: Antibacterial activity against Staphylococcus aureus; type: functional
[6] = Toxicity in sheep erythrocytes assessed as hemolysis at 300 uM after 90 mins; type: cell-based, Ovis aries, Erythrocyte; conditions: read-out: Activity
[7] = Toxicity in sheep erythrocytes assessed as hemolysis at 25 uM after 90 mins; type: cell-based, Ovis aries, Erythrocyte; conditions: read-out: Activity
[8] = Staphylococcus aureus, ATCC 13150, 20 h, read-out: MIC

| SMILES | MIC [1, 8] | MIC [2] | other results |
| --- | --- | --- | --- |
| O=C(/C=C/c1ccc(Cl)cc1)c1cccc(N2CCCCC2)c1 | > 100 µM | > 100 µM |  |
| COc1cc(OC)c(C2CCN(C)CC2)c(O)c1C(=O)/C=C/c1ccccc1 | > 100 µM | > 100 µM |  |
| COc1cc(OC)c(C2CCN(C)CC2)cc1C(=O)/C=C/c1ccccc1C | > 100 µM | > 100 µM |  |
| COc1ccccc1/C=C/C(=O)c1cc(C2CCN(C)CC2)c(OC)cc1OC | > 100 µM | > 100 µM |  |
| COc1cc(OC)c(C2CCN(C)CC2)c(O)c1C(=O)/C=C/c1ccc(F)cc1 | > 100 µM | > 100 µM |  |
| COc1ccc(/C=C/C(=O)c2c(OC)cc(OC)c(C3CCN(C)CC3)c2O)c(OC)c1 | > 100 µM | > 100 µM |  |
| Cc1cc(C)cc(-c2ccc(N3CCNCC3)c(/C=C/C(=O)c3ccc(NCCN(C)C)cc3)c2)c1 |  |  | MIC [3]: 2 µM (≈ 0.965 µg/mL) |
| COc1cc(OC)c(C2CCN(C)CC2)cc1C(=O)/C=C/c1ccccc1Cl (stereo in doubt; 1-5) |  | > 100 µM | MIC [1]: 25 µM (≈ 10 µg/mL) |
| COc1cc(OC)c(C2CCN(C)CC2)cc1C(=O)/C=C/c1ccccc1Cl (stereo in doubt; 7-140) |  |  | MIC [1]: >100 µM |
| COc1ccc(C(=O)/C=C/c2ccccc2)c(OC)c1 | > 100 µM | > 100 µM |  |
| COc1cc(O)c(C(=O)/C=C/c2ccccc2OC)cc1C | > 100 µM | > 100 µM |  |
| COc1cc(OC)c(C2CCN(C)CC2)c(O)c1C(=O)/C=C/c1ccc(C#N)cc1 | > 100 µM | > 100 µM |  |
| CCN1CCC(c2cc(C(=O)/C=C/c3ccc(Cl)cc3)c(OC)cc2OC)CC1 | 50 µM (≈ 20.7 µg/mL) | > 100 µM |  |
| COc1ccc(C2CCN(C)CC2)cc1C(=O)/C=C/c1ccc(Cl)cc1 | > 100 µM | > 100 µM |  |
| O=C(/C=C/c1ccccc1Cl)c1cccc(N2CCNCC2)c1 | > 100 µM | > 100 µM |  |
| CCN1CCC(c2cc(C(=O)/C=C/c3ccncc3)c(OC)cc2OC)CC1 | > 100 µM | > 100 µM |  |
| COc1cc(O)c(C(=O)/C=C/c2ccccc2Cl)cc1C | > 100 µM | > 100 µM |  |
| O=C(/C=C/c1ccccc1Cl)c1cccc(N2CCCCC2)c1 | > 100 µM | > 100 µM |  |
| COc1cc(OC)c(C2CCN(C)CC2)cc1C(=O)/C=C/c1ccc(N2CCN(C)CC2)cc1 | > 100 µM | > 100 µM |  |
| COc1ccc(C2CCN(C)CC2)cc1C(=O)/C=C/c1ccccc1 | 100 µM (≈ 33.5 µg/mL) | > 100 µM |  |
| COc1cc(OC)c(C2CCN(C)CC2)c(O)c1C(=O)/C=C/c1ccc(N(C)C)cc1 | 25 µM (≈ 10.6 µg/mL) | > 100 µM | hemolysis at 1.5 h, 100 µM [4]: 10.3% |
| O=C(/C=C/c1ccccc1)c1cccc(N2CCCCC2)c1 | > 100 µM | > 100 µM |  |

| SMILES | MIC [1, 8] | MIC [2] | other results |
| --- | --- | --- | --- |
| COc1ccc(C2CCN(C)CC2)cc1C(=O)/C=C/c1ccccc1Cl | > 100 µM | > 100 µM |  |
| CCN1CCC(c2cc(C(=O)/C=C/c3ccccc3)c(OC)cc2OC)CC1 | > 100 µM | > 100 µM |  |
| COc1ccc(C(=O)/C=C/c2ccccc2Cl)c(OC)c1 | > 100 µM | > 100 µM |  |
| O=C(O)c1ccc(C(=O)/C=C/c2cc(Br)cc(Br)c2)cc1 |  |  | MIC [5]: 2 µM (≈ 0.82 µg/mL) |
| COc1cc(OC)c(C2CCN(C)CC2)c(O)c1C(=O)/C=C/c1ccccc1Cl | 50 µM (≈ 20.8 µg/mL) | > 100 µM |  |
| COc1cc(OC)c(N2CCC(N3CCCCC3)CC2)cc1C(=O)/C=C/c1ccccc1F | > 100 µM | > 100 µM |  |
| CN1CCC(c2ccc(O)c(C(=O)/C=C/c3ccccc3Cl)c2)CC1 | 25 µM (≈ 8.9 µg/mL) | > 100 µM | hemolysis at 1.5 h, 100 µM [4]: 14.8% |
| COc1cc(OC)c(N2CCC(N3CCCCC3)CC2)cc1C(=O)/C=C/c1ccccc1Cl | > 100 µM | > 100 µM |  |
| COc1cc(O)c(C(=O)/C=C/c2ccccc2)cc1C | > 100 µM | > 100 µM |  |
| O=C(/C=C/c1ccccc1)c1cccc(N2CCNCC2)c1 | > 100 µM | > 100 µM |  |
| C=CC(C)(C)c1cc(/C=C/C(=O)c2ccc(O)cc2)c(OC)cc1O [LICOAGROCHACONE A] | 6.3 µM (≈ 2.13 µg/mL) | > 100 µM | MIC [3]: 18.4 µM (≈ 6.23 µg/mL); hemolysis at 1.5 h, 100 µM [4]: 19.9%; hemolysis at 1.5 h, 300 µM [6]: 47.9%; hemolysis at 1.5 h, 25 µM [7]: 11.6% |
| COc1ccccc1/C=C/C(=O)c1c(OC)cc(OC)c(C2CCN(C)CC2)c1O | 50 µM (≈ 20.6 µg/mL) | > 100 µM |  |
| COc1cc(O)c(C(=O)/C=C/c2ccc(F)cc2)cc1C1CCN(C)CC1 | > 100 µM | > 100 µM |  |
| COc1cc(OC)c(C2CCN(C)CC2)cc1C(=O)/C=C/c1cccnc1 | > 100 µM | > 100 µM |  |
| COc1cc(OC)c(C2CCN(C)CC2)c(O)c1C(=O)/C=C/c1ccc(Cl)cc1 | 25 µM (≈ 10.4 µg/mL) | > 100 µM | hemolysis at 1.5 h, 100 µM [4]: 5.5% |
| COc1cc(OC)c(C2CCN(C)CC2)c(O)c1C(=O)/C=C/c1ccccc1F | > 100 µM | > 100 µM |  |
| COc1cc(OC)c(C2CCN(C)CC2)c(O)c1C(=O)/C=C/c1ccc(N2CCN(C)CC2)cc1 | > 100 µM | > 100 µM |  |
| COc1cc(OC)c(C2CCN(C)CC2)cc1C(=O)/C=C/c1ccccn1 | > 100 µM | > 100 µM |  |
| CCN1CCC(c2cc(C(=O)/C=C/c3ccc(N4CCN(C)CC4)cc3)c(OC)cc2OC)CC1 | > 100 µM | > 100 µM |  |
| COc1ccc(C(=O)/C=C/c2ccccn2)c(OC)c1 | > 100 µM | > 100 µM |  |
| CC1(C)S[C@@H]2[C@H](NC(=O)Cc3ccccc3)C(=O)N2[C@H]1C(=O)O [PENICILLIN G] | 0.1 µM (≈ 0.0334 µg/mL) |  |  |
| COc1cc(OC)c(C2CCN(C)CC2)c(O)c1C(=O)/C=C/c1ccc(C)cc1 | 6.25 µM (≈ 2.47 µg/mL) | > 100 µM | hemolysis at 1.5 h, 100 µM [4]: 6.7% |

| SMILES | MIC [1, 8] | MIC [2] | other results |
| --- | --- | --- | --- |
| COc1ccc(C(=O)/C=C/c2ccc(Cl)cc2)c(OC)c1 | > 100 µM | > 100 µM |  |
| COc1ccc(/C=C/C(=O)c2c(OC)cc(OC)c(C3CCN(C)CC3)c2O)cc1 | 50 µM (≈ 20.6 µg/mL) | > 100 µM |  |
| COc1ccc(/C=C/C(=O)c2cccc(N3CCCCC3)c2)c(OC)c1 | > 100 µM | > 100 µM |  |
| COc1cccc(/C=C/C(=O)c2c(OC)cc(OC)c(C3CCN(C)CC3)c2O)c1 | > 100 µM | > 100 µM |  |
| COc1ccc(C(=O)/C=C/c2cccnc2)c(OC)c1 | > 100 µM | > 100 µM |  |
| COc1ccc(C(=O)/C=C/c2ccc(N3CCN(C)CC3)cc2)c(OC)c1 | > 100 µM | > 100 µM |  |
| COc1cc(OC)c(C2CCN(C)CC2)cc1C(=O)/C=C/c1ccc(C)cc1 | > 100 µM | > 100 µM |  |
| COc1cc(OC)c(C2CCN(C)CC2)cc1C(=O)/C=C/c1ccc(C(F)(F)F)cc1 | 50 µM (≈ 21.7 µg/mL) | > 100 µM |  |
| COc1cc(OC)c(C2CCN(C)CC2)cc1C(=O)/C=C/c1ccccc1 | > 100 µM | > 100 µM |  |
| COc1cc(OC)c(C2CCN(C)CC2)cc1C(=O)/C=C/c1ccc(Cl)cc1 | > 100 µM | > 100 µM |  |
| O=C(/C=C/c1ccc(Cl)cc1)c1cccc(N2CCNCC2)c1 | 25 µM (≈ 8.17 µg/mL) | > 100 µM | hemolysis at 1.5 h, 100 µM [4]: 11.6% |
| COc1ccc(/C=C/C(=O)c2cc(C3CCN(C)CC3)c(OC)cc2OC)cc1 | > 100 µM | > 100 µM |  |
| COc1ccc(C(=O)/C=C/c2ccncc2)c(OC)c1 [DILMEFONE] | > 100 µM | > 100 µM |  |
| COc1cc(OC)c(C2CCN(C)CC2)c(O)c1C(=O)/C=C/c1ccccc1C | 50 µM (≈ 19.8 µg/mL) | > 100 µM |  |
| COc1cc(OC)c(C2CCN(C)CC2)cc1C(=O)/C=C/c1ccccc1F | > 100 µM | > 100 µM |  |
| COc1ccc(/C=C/C(=O)c2cccc(N3CCNCC3)c2)c(OC)c1 | 100 µM (≈ 35.2 µg/mL) | > 100 µM |  |
| O=C(O)c1ccc(C(=O)/C=C/c2cc(C(F)(F)F)cc(C(F)(F)F)c2)cc1 |  |  | MIC [5]: 2 µM (≈ 0.777 µg/mL) |
| CCN1CCC(c2cc(C(=O)/C=C/c3ccccc3Cl)c(OC)cc2OC)CC1 | > 100 µM | > 100 µM |  |
| COc1cc(OC)c(C2CCN(C)CC2)cc1C(=O)/C=C/c1ccncc1 | > 100 µM | > 100 µM |  |
| COc1cc(OC)c(C2CCN(C)CC2)c(O)c1C(=O)/C=C/c1cccc(Cl)c1 | 6.25 µM (≈ 2.6 µg/mL) | > 100 µM | hemolysis at 1.5 h, 100 µM [4]: 6.5% |
| COc1cc(OC)c(C2CCN(C)CC2)c(O)c1C(=O)/C=C/c1ccc(C(F)(F)F)cc1 | > 100 µM | > 100 µM |  |
